Data taken from patent US8470776B2, “Conjugates of disorazoles and their derivatives with cell-binding molecules, novel disorazole derivatives, processes of manufacturing and uses thereof” (Aeterna Zentaris GmbH, priority 2006, dated 2013).
Values after ≈ are worked out from the molar mass of the structure shown. Values joined by “and” are separate entries in the source; they are usually repeats but may differ in a detail not shown here. Identical values can stand only once.

Tests used:
[1] = system: human glioblastoma cell line SF-268; assay: cells; format: cell-based; settings: XTT, 45 h incubation
Description: (§1) Selected compounds of the invention were investigated for their antiproliferative activity in a proliferation test on established tumor cell lines.
(§2) The test used determines the cellular dehydrogenase activity and makes possible a determination of the cell vitality and indirectly the cell count.
(§3) The cell lines used are the human cervical carcinoma cell line KB/HeLa (ATCC CCL17), the ovarian adenocarcinoma cell line SKOV-3 (ATCC HTB77), the human glioblastoma cell line SF-268 (NCI-503138) and the lung carcinoma cell line NCI-H460 (NCI-503473). In addition, for the investigation of the cell cycle-specific action of the compounds of the invention, an RKOp27 cell system was used (Schmidt M et al. Oncogene 2000, 19(20): 2423-2429). RKO is a human colon carcinoma cell line (ATCC CRL-2577), in which the cell cycle inhibitor p27^kip1 induced by means of the ecdysone expression system is expressed and can be led to a cell cycle arrest specifically in […]. A nonspecifically acting substance inhibits the proliferation independently of whether the RKO cell is or is not arrested in G1 or G2. Cell cycle-specific substances such as, for example, tubulin inhibitors are, however, only cytotoxic if cells are not arrested and the cell cycle is passed through.
(§4) The adherently growing tumor cell lines KB/HeLa, SKOV-3, SF-268 and NCI-H460 were cultured under standard conditions in an incubator at 37° C., 5% CO2 and 95% atmospheric humidity. On experimental day 1, the cells are detached using trypsin/EDTA and pelleted by centrifugation. Subsequently, the cell pellet is resuspended in the respective culture medium at the corresponding cell count and reacted in a 96-well microtiter plate. The plates are then cultured overnight in the incubator. The test substances are prepared as 1 mg/ml stock solutions in DMSO and diluted to the appropriate concentrations on experimental day 2 using culture medium. The substances in culture medium are then added to the cells and incubated in the incubator for 45 h. As a control, cells which are not treated with test substance are used. For the XTT assay, 1 mg/ml of XTT (sodium 3′-[1-(phenylaminocarbonyl)-3,4-tetrazolium]-bis(4-methoxy-6-nitro)benzenesulfonic acid) is dissolved in RPMI-1640 medium without Phenol Red. Additionally, a 0.383 mg/ml PMS (N-methyldibenzopyrazine methylsulfate) solution in phosphate-buffered saline solution (PBS) is prepared. On experimental day 4, 75 μl/well of XTT-PMS mixture is pipetted onto the cell plates which in the meantime have been incubated with the test substances for 45 h. For this, shortly before use, the XTT solution is mixed with the PMS solution in the ratio 50:1 (vol:vol). The cell plates are then incubated in the incubator for a further 3 h and the optical density (OD490 nm) is determined in a photometer. By means of the OD490 nm determined, the percentage inhibition is calculated relative to the control and plotted semilogarithmically in the form of a concentration-action curve. The IC50 is calculated by means of a regression analysis from the concentration-action curve using the program Graphpad Prism.

[2] = system: human cervical carcinoma cell line KB/HeLa; assay: cells; format: cell-based; settings: XTT, 45 h incubation
Description: as §1, §2, §3, §4

[3] = system: human GnRH receptor (hGnRH-R) positive cell line 5C6; assay: GnRH-receptor dependent proliferation assay, 5C6; format: cell-based; settings: 30 min exposure, vital cells vs untreated control = 100%
Experimental: (§5) The dose-dependent receptor-mediated inhibition of cell proliferation of selected compounds of the invention was investigated.
(§6) To study these effects a human GnRH receptor (hGnRH-R) positive cell line (5C6; Beckers et al., Eur. J. Biochem. 1995, 231: 535-543) and an hGnRH-R negative cell line (LTK^−; ECACC No. 85011432) was used.
(§7) Respective cells were exposed to 1 mL culture medium in 24 well multi-titer-plates (MTPs) with a cell number of 15000 cells per well. The cell number is adjusted in such a way that after 5 days of testing the untreated control cells are still in the exponential growth phase.
(§8) Test compounds are given to the cultured cells after 4 hours of initial growth (adherence) in a volume of 100 μL to yield the final concentrations given in table 2.
(§9) After 30 min of incubation at 37° C. the entire culture medium is sucked off and the cells are washed twice with culture medium without test compounds. After the washing the cells are placed into an incubator (at 37° C., 5% CO2 and 95% atmospheric humidity) and incubated for further 4 days.
(§10) For the determination of the cell number after incubation the cells are detached using trypsin/EDTA and centrifuged. The number of vital cells and the total cell number are counted using a Vi-Cell Analyzer (Beckman Coulter).
(§11) The number of vital cells is analyzed in comparison with untreated control cells (=100%). Only cell groups (respective wells) are considered of which the total cell viability is more than 90%, i.e. inhibition of cell proliferation by unspecific toxicity can be excluded.
(§12) The proliferation status of untreated control cells after 96 hours is set to 100%.

[4] = system: RKOp27 cells (human colon carcinoma cell line RKO), p27kip1 not induced; assay: cells; format: cell-based; settings: without expression of p27kip1, XTT, 45 h
Description: as §3, §4
(§13) The assay is carried out in 96-well plates. […] By comparison of the activity on induced and noninduced cells, conclusions on the mechanism of action (cell cycle specificity) of the therapeutics can be drawn. […] cells are inoculated in approximately three-fold higher cell count, since division no longer takes place during the assay in comparison with uninduced cells (20000 cells/well induced, 6250 cells/well not induced). The controls are untreated cells (+/−induction). The induction is carried out with 3 μM muristerone A. On the 1st day, the cells are exposed (+/−muristerone A) and incubated at 37° C. for 24 h. On day 2, the test substance is added (control DMSO) and incubation is continued at 37° C. for a further 45 h before a standard XTT assay is carried out.

[5] = system: RKOp27 cells (human colon carcinoma cell line RKO), p27kip1 induced; assay: cells; format: cell-based; settings: p27kip1 induced with 3 μM muristerone A, XTT, 45 h
Description: as §3, §4, §13

[6] = system: lung carcinoma cell line NCI-H460; assay: cells; format: cell-based, human; settings: XTT, 45 h incubation
Description: as §1, §2, §3, §4

[7] = system: ovarian adenocarcinoma cell line SKOV-3; assay: cells; format: cell-based, human; settings: XTT, 45 h incubation
Description: as §1, §2, §3, §4

[8] = system: hGnRH-R negative cell line LTK−; assay: GnRH-receptor dependent proliferation assay, LTK-; format: cell-based; settings: 30 min exposure, vital cells vs untreated control = 100%
Experimental: as §5, §6, §7, §8, §9, §10, §11, §12

## COc1cccc2c1C(=O)c1c(O)c3c(c(O)c1C2=O)C[C@@](O)(C(=O)COC(=O)CCCC(=O)NCCCC[C@@H](NC(=O)[C@H](Cc1ccc(O)cc1)NC(=O)[C@H](CO)NC(=O)[C@H](Cc1c[nH]c2ccccc12)NC(=O)[C@H](Cc1c[nH]cn1)NC(=O)[C@@H]1CCC(=O)N1)C(=O)N[C@@H](CC(C)C)C(=O)N[C@@H](CCCNC(=N)N)C(=O)N1CCC[C@H]1C(=O)NCC(N)=O)C[C@@H]3O[C@H]1C[C@H](N)[C@H](O)[C@H](C)O1 [AN-152, reference compound]
[1]
  IC50 SF-268: 1.258 µg/mL (≈ 0.665 µM)
[2]
  IC50 KB/HELA: 0.871 µg/mL (≈ 0.46 µM)
[3]
  proliferation status after 96 hours, cell line 5C6, 100 nM: 43.9% and 42.1%
[4]
  IC50 RKOp27: 0.587 µg/mL (≈ 0.31 µM)
[5]
  IC50 RKOp27 induced: 0.632 µg/mL (≈ 0.334 µM)
[6]
  IC50 NCI-H460: 0.558 µg/mL (≈ 0.295 µM)
[7]
  IC50 SKOV-3: 1.238 µg/mL (≈ 0.654 µM)
[8]
  proliferation status after 96 hours, cell line LTK−, 100 nM: 102.3% and 101.3%

## C/C=C/[C@H](OC(=O)CCC(=O)NCCCC[C@H](NC(=O)[C@H](Cc1ccc(O)cc1)NC(=O)[C@H](CO)NC(=O)[C@H](Cc1c[nH]c2ccccc12)NC(=O)[C@H](Cc1cnc[nH]1)NC(=O)[C@@H]1CCC(=O)N1)C(=O)N[C@@H](CC(C)C)C(=O)N[C@@H](CCCNC(=N)N)C(=O)N1CCC[C@H]1C(=O)NCC(N)=O)C(C)(C)[C@@H]1C\C=C/C=C\C=C\[C@H](OC)Cc2nc(co2)C(=O)O[C@H](C(C)(C)[C@H](/C=C/C)OC(=O)CCC(=O)NCCCC[C@H](NC(=O)[C@H](Cc2ccc(O)cc2)NC(=O)[C@H](CO)NC(=O)[C@H](Cc2c[nH]c3ccccc23)NC(=O)[C@H](Cc2cnc[nH]2)NC(=O)[C@@H]2CCC(=O)N2)C(=O)N[C@@H](CC(C)C)C(=O)N[C@@H](CCCNC(=N)N)C(=O)N2CCC[C@H]2C(=O)NCC(N)=O)C/C=C\[C@H]2O[C@H]2/C=C/C=C\c2nc(co2)C(=O)O1 [compound 15, Disorazole A1 Bis Hemi Succinyl [D-Lys^6]LHRH]
[1]
  IC50 SF-268: >3.16 µg/mL
[2]
  IC50 KB/HELA: >3.16 µg/mL
[3]
  proliferation status after 96 hours, cell line 5C6, 0.1 nM: 95.1%
  proliferation status after 96 hours, cell line 5C6, 1 nM: 98.6%
  proliferation status after 96 hours, cell line 5C6, 10 nM: 66.6%
  proliferation status after 96 hours, cell line 5C6, 100 nM: 43.0%
[4]
  IC50 RKOp27: ca. 3.16 μg/ml
[5]
  IC50 RKOp27 induced: >3.16 µg/mL
[6]
  IC50 NCI-H460: >3.16 µg/mL
[7]
  IC50 SKOV-3: >3.16 µg/mL
[8]
  proliferation status after 96 hours, cell line LTK−, 0.1 nM: 108.6%
  proliferation status after 96 hours, cell line LTK−, 1 nM: 111.3%
  proliferation status after 96 hours, cell line LTK−, 10 nM: 108.0%
  proliferation status after 96 hours, cell line LTK−, 100 nM: 101.7%

## C/C=C/C(OC(=O)CCCC(=O)NCCCC[C@H](NC(=O)[C@H](Cc1ccc(O)cc1)NC(=O)[C@H](CO)NC(=O)[C@H](Cc1c[nH]c2ccccc12)NC(=O)[C@H](Cc1cnc[nH]1)NC(=O)[C@@H]1CCC(=O)N1)C(=O)N[C@@H](CC(C)C)C(=O)N[C@@H](CCCNC(=N)N)C(=O)N1CCC[C@H]1C(=O)NCC(N)=O)C(C)(C(=O)OC)C1C\C=C/C=C/C=C/c2nc(co2)C(=O)OC(C(C)(C(=O)OC)C(/C=C/C)OC(=O)CCCC(=O)NCCCC[C@H](NC(=O)[C@H](Cc2ccc(O)cc2)NC(=O)[C@H](CO)NC(=O)[C@H](Cc2c[nH]c3ccccc23)NC(=O)[C@H](Cc2cnc[nH]2)NC(=O)[C@@H]2CCC(=O)N2)C(=O)N[C@@H](CC(C)C)C(=O)N[C@@H](CCCNC(=N)N)C(=O)N2CCC[C@H]2C(=O)NCC(N)=O)C\C=C/C=C/C=C/c2nc(co2)C(=O)O1 (stereo partly drawn) [compound 17, Disorazole Z Bis Hemi Glutaryl [D-Lys^6]LHRH]
[1]
  IC50 SF-268: >3.16 µg/mL
[2]
  IC50 KB/HELA: >3.16 µg/mL
[3]
  proliferation status after 96 hours, cell line 5C6, 0.1 nM: 95.5%
  proliferation status after 96 hours, cell line 5C6, 1 nM: 85.9%
  proliferation status after 96 hours, cell line 5C6, 10 nM: 58.5%
  proliferation status after 96 hours, cell line 5C6, 100 nM: 41.7%
[4]
  IC50 RKOp27: >3.16 µg/mL
[5]
  IC50 RKOp27 induced: >3.16 µg/mL
[6]
  IC50 NCI-H460: >3.16 µg/mL
[7]
  IC50 SKOV-3: >3.16 µg/mL
[8]
  proliferation status after 96 hours, cell line LTK−, 0.1 nM: 100.9%
  proliferation status after 96 hours, cell line LTK−, 1 nM: 99.8%
  proliferation status after 96 hours, cell line LTK−, 10 nM: 98.8%
  proliferation status after 96 hours, cell line LTK−, 100 nM: 98.0%

## COc1cccc2c1C(=O)c1c(O)c3c(c(O)c1C2=O)C[C@@](O)(C(=O)CO)C[C@@H]3O[C@H]1C[C@H](N)[C@H](O)[C@H](C)O1 [doxorubicin, reference compound]
[1]; Homo sapiens, SF-268, read-out: IC50 SF-268
  IC50: 0.305 µg/mL (≈ 0.561 µM)
[2]; Homo sapiens, HeLa, read-out: IC50 KB/HELA
  IC50: 0.32 µg/mL (≈ 0.589 µM)
[4]; Homo sapiens, RKOp27, read-out: IC50 RKOp27
  IC50: 0.082 µg/mL (≈ 0.151 µM)
[5]; Homo sapiens, RKOp27, read-out: IC50 RKOp27 induced
  IC50: 0.124 µg/mL (≈ 0.228 µM)
[6]; Homo sapiens, NCI-H460, read-out: IC50 NCI-H460
  IC50: 0.105 µg/mL (≈ 0.193 µM)
[7]; Homo sapiens, SK-OV-3, read-out: IC50 SKOV-3
  IC50: 0.347 µg/mL (≈ 0.638 µM)

## Disorazole E1 Mono Hemi Succinyl [D-Lys^6]LHRH, Both Regio-Isomers [compounds 13/14]
[1]
  IC50 SF-268: 0.05566 µg/mL
[2]
  IC50 KB/HELA: 0.01891 µg/mL
[4]
  IC50 RKOp27: 0.01724 µg/mL
[5]
  IC50 RKOp27 induced: >3.16 µg/mL
[6]
  IC50 NCI-H460: 0.0128 µg/mL
[7]
  IC50 SKOV-3: 0.01685 µg/mL
[8]
  proliferation status after 96 hours, cell line LTK−, 0.1 nM: 98.6%
  proliferation status after 96 hours, cell line LTK−, 1 nM: 98.8%
  proliferation status after 96 hours, cell line LTK−, 10 nM: 93.2%
  proliferation status after 96 hours, cell line LTK−, 100 nM: 27.0%
